{
  "source": "patent US12589099B2",
  "about": "(priority 2021, dated 2026)",
  "format_in_all_cases": "in vivo, male Wistar rats",
  "key": {"[1]": {"system": "moderate traumatic brain injury (TBI) induced by controlled cortical impact (CCI)", "test": "Novel object recognition (NOR) test after TBI", "procedure": "FIG. 2: The figure illustrates functional tests that are carried out on healthy (sham surgery) no treatment, vehicle treated and ALPHA-1062 treated rats to assess sensorimotor and cognitive function after TBI. Sensimotor function tests. a) The figure depicts tests to assess the modified neurological severity score (mNSS). […] The animal is required to balance over a grid and the frequency of steps missing the grid are counted. This test assesses the functionality of the injured parietal cortex of the rat's brain. c) The adhesive removal test consists of applying adhesive tape on each forepaw of the animal and measuring the time-to-contact and the time-to-remove them. This behavior requires correct paw and mouth sensitivity (time-to-contact) and correct dexterity (time-to-remove). Cognitive function tests: a) This picture illustrates the Morris water maze that comprises that a rat is placed in a large circular pool (picture on the left) and is required to find an invisible platform that allows it to escape the water by using various visuo-spatial cues. This test is used to study spatial learning and memory and assesses hippocampal and select cortical brain region function. Usually, the path of the rat through the pool is tracked (picture on the right) and the time spend in the proximity of the platform as well as the time needed until the platform is found by the rat are measured. b) For the new/novel object recognition (NOR) test, after a habituation time in the test space (picture on far left) rats are given the opportunity to explore two identical objects (A) for a predetermined period of time (picture in the middle). After a delay, the animals are then presented with two objects to explore, one of which is the same as in the first exploration trial (A), the other a new object (B) (picture on the right). […]"}, "[2]": {"system": "moderate traumatic brain injury (TBI) induced by controlled cortical impact (CCI)", "test": "Lesion volume and hippocampal structure (H&E) 35 days post-TBI", "details": "4.5 mg/kg IN twice daily, 35 days after TBI", "text": "(§1) Young adult (2-3 months) male Wistar rats were subjected to a moderate traumatic brain injury (TBI) induced by controlled cortical impact (CCI). Animal models of TBI including the CCI model and functional tests have been described in detail in peer reviewed publications (Xiong et al., 2013, Nat Rev Neurosci.; Zhang et al., 2016, J Neurosurg.; Zhang et al., 2016, Neurochem Int.; Zhang et al., 2021, J Neurotrauma). Injury consisted of a single impact at 4.0 m/sec, 2.5 mm deformation to the left parietal cortex. In addition, a group of animals was left healthy/not injured to serve as a healthy control.\nThe substance used in this study was ALPHA-1062 at 4.5 mg/kg. As control treatment (vehicle) purified water was administered intranasally (IN). The ALPHA-1062 and the control treatment were initiated 2 hours after injury and continued twice daily (with a 6-hour interval) for 35 consecutive days.\nHistological assessment was performed including quantitative image analysis protocols; followed by statistical analysis of the data. Histology: All rats were sacrificed after the last Morris water maze (MWM) test 35 days after TBI for the following histological analyses: lesion volume (H&E), neuronal cell loss in injured cortex and hippocampus (NeuN), doublecortin (DCX, neuroblasts), NeuN/BrdU (newborn neurons), pathological p-Tau (AT8) and total Tau IHC. […]"}, "total Tau": {"system": "total Tau", "test": "Total Tau immunostaining 35 days post-TBI", "details": "4.5 mg/kg IN twice daily, cortex, DG, CA3, CA1 of ipsilateral hemisphere", "text": "as §1\nThe substance used in this study was ALPHA-1062 at 4.5 mg/kg. […]\nHistological assessment was performed including quantitative image analysis protocols; followed by statistical analysis of the data. […]\nFor cell counting and quantitation NeuN+ cells were examined in the ipsilateral cortex, DG, CA1, and CA3 regions of the ipsilateral hippocampus. […] The number of BrdU+ cells (red-fluorophore) and NeuN (green-fluorophore)/BrdU-colabeled cells (yellow after merge) were counted. […] The immune-positive cells were determined and divided by the measured areas and presented as numbers per square mm. […] Tau or p-Tau immunoreactive areas including cortex, dentate gyrus, CA3 and CA1 regions of the ipsilateral hemisphere were imaged and quantified by Image J software (NIH)."}},
  "data": [
    {"smiles": "COc1ccc2c3c1O[C@H]1C[C@@H](OC(=O)c4ccccc4)C=C[C@@]31CCN(C)C2", "note": "[ALPHA-1062, (4aS,6R,8aS)-5,6,9,10,11,12-hexahydro-3-methoxy-11-methyl-4aH-[1]benzofuro[3a,3,2-ef][2]benzazepin-6-ol benzoate]", "values": [
      {"measurement": "NOR, percentage of time spent exploring novel object (B) vs familiar object", "setting": "[1]; 4.5 mg/kg IN twice daily, 5 weeks after TBI", "result": "statistically significant preference for the novel object"},
      {"measurement": "Novel Object Recognition, performance over SHAM", "setting": "[1]; rats after TBI, compared to healthy sham animals", "result": "equivalent to"},
      {"measurement": "Novel Object Recognition, performance over VEHICLE", "setting": "[1]; rats after TBI, compared to vehicle treatment", "result": "superior"},
      {"measurement": "hippocampal structure on the injured side of the brain", "setting": "[2]", "result": "preservation of hippocampal structure"},
      {"measurement": "lesion volume", "setting": "[2]; vs vehicle", "result": "significant (p<0.05) reduction of lesion volume"},
      {"measurement": "total Tau protein", "setting": "total Tau", "result": "does not alter total Tau protein"}
    ]}
  ]
}
